These results are taken from publication PMC11080064, “Inositol Hexaphosphate as an Inhibitor and Potential Regulator of p47^phox Membrane Anchoring” (Biochemistry, 2024).

“Also recorded” adds a separate entry of the source.

In assay [1] the target is T1, p47phox-PX (Homo sapiens, UniProt P14598).
T1 construct: poly histidine tag (TEV cleavable) (cleaved yes); made in house; host or cells: E. coli BL21 (DE3)
T1 sequence (P14598 1-128): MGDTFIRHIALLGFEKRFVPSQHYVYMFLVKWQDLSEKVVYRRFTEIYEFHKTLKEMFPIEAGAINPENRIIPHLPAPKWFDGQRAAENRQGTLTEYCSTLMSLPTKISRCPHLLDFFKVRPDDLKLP
The assay can be described thus: Fluorescence polarization direct binding of BODIPY-PI(3,4)P2 tracer. The following applies: 50 nM tracer, 10-0.02 μM protein, pH 7.0, 1 mM MgCl2. As to the method: All fluorescence polarization (FP) experiments were performed using BODIPY-FL diC6–PI(3,4)P2 [Echelon Biosciences (Salt Lake City, UT)] as the reporting tracer. To determine the binding affinity of the fluorophore to p47^phox-PX, a series of 2-fold dilutions, ranging from 10–0.02 μM protein, were performed in 50 mM Bis-Tris (pH 7.0), 100 mM NaCl, 1 mM MgCl2, and 1 mM DTT. Each sample contained 50 nM BODIPY-PI(3,4)P2 and was plated in triplicate on a black half area 96-well microplate [Corning (Corning, NY)]. The plate was centrifuged at 500 rpm for 30 s prior to analysis on a SpectraMax M5 [Molecular Devices (San Jose, CA)]. Measurements were taken using a monochromator with fixed excitation and emission wavelengths of 485 and 525 nm, respectively, and a cutoff of 515 nm. Raw data was converted to millipolarization (mP) using the SoftMax Pro software [Molecular Devices (San Jose, CA)]. mP values were then converted to anisotropy (A) using the following formula: [drawing 3] […]
(In general: Fluorescence polarisation rises when a labelled molecule tumbles more slowly, as on binding a larger partner.)

Assay [2] has as its target T2, p47phox-PX (PX domain of p47phox, residues 1-128) (Homo sapiens, UniProt P14598).
T2 construct: poly histidine tag (TEV cleavable) (cleaved yes); made in house; host or cells: E. coli BL21 (DE3)
T2 sequence (P14598 1-128): T1 sequence (P14598 1-128)
The assay can be described thus: 1H-15N-HSQC NMR titration (chemical shift perturbation) of inositol phosphates. Format: binding. Conditions: for Kd / binding observed by NMR (CSPs): 100 μM p47phox-PX; for Kd: pH 6.0, 25 °C, read-out: Kd (binding affinity, global fit of CSPs); for binding observed by NMR (CSPs): up to 64 mM. As to the method: All NMR samples were prepared with either ^15N- or ^15N–^13C-p47^phox-PX in 50 mM Bis-Tris (pH 6.0), 100 mM NaCl, 1 mM DTT, 0.02% (v/v) sodium azide and 10% D2O as a lock solvent. Protein concentration was typically 100 μM in each sample, as confirmed by the Bradford Assay. NMR experiments were collected on a 600 MHz Bruker AVANCE III equipped with a TXI triple resonance probe at 25 °C. NMR assignments of the PX domain were transferred from a previous publication,[24] then were confirmed, and expanded by collection of 3D HNCA, HN(CA)CB, and CBCA(CO)NH experiments on a 700 MHz Bruker AVANCE III at 25 °C.[41]−[43] Standard Bruker pulse sequences were used with the HNCA collected with 64 scans and 1024 × 40 × 48 total points, the HN(CA)CB collected with 64 scans and 1024 × 40 × 64 total points, and the CBCA(CO)NH collected with 32 scans and 1024 × 40 × 96 total points. NMR data was processed with NMRPipe[44] and analyzed using NMRFAM-Sparky.[45]
For NMR titrations, inositol phosphate stocks were prepared in the same NMR buffer, the IP6 stock was pH adjusted, and added in 0.25, 0.5, 2, and 4 to 1 mol equiv to the PX domain of p47^phox. Due to the high buffering capacity of IPs, pH values were checked during titrations and corrected as needed. ^1H–^15N-HSQC spectra were collected at each titration point, using a standard Bruker pulse sequence, collected with 2048 × 100 total points and 16 or 32 scans. Chemical shift perturbations (CSPs) were calculated using weighted chemical shifts in the following formula[46]: [drawing 1] where Δ^1H and Δ^15N represent the changes in the ^1H and ^15N chemical shifts for each resonance. To calculate the binding affinity of IPs to the PX domain of p47^phox, residues with ≥0.08 CSP at the highest titration point were fit to the following formula, which accounts for ligand depletion, on GraphPad Prism 10: [drawing 2] where CSP denotes the CSP of the individual residue at each IP concentration ([L]), Dmax represents the CSP at saturation, [P] represents the concentration of p47^phox-PX, and Kd represents the dissociation constant of p47^phox-PX and IP. The formula was initially fit to each residue individually and any residue with R^2 < 0.95 was removed before fitting the data globally to determine the overall binding affinity.

Assay [3] addresses T3, p47phox-PX binding to PI(3,4)P2-containing liposomes (Homo sapiens, UniProt P14598).
T3 construct: poly histidine tag (TEV cleavable) (cleaved yes); made in house; host or cells: E. coli BL21 (DE3)
T3 sequence (P14598 1-128): T1 sequence (P14598 1-128)
The assay can be described thus: Dansyl-PE liposome FRET assay of membrane anchoring. Format: biochemical. The following applies: 2.5 μM p47phox-PX, 125 μM accessible lipid, 79:15:1:5 POPC:POPE:diC16-PI(3,4)P2:Dansyl-PE, pH 7.0, 1 mM MgCl2; read-out: apparent IC50 of inhibition of membrane anchoring. The method, then: To ensure proper liposome formation, phosphatidylinositol stocks were protonated prior to use adapted from a previously published protocol.[28] In brief, lyophilized PI(3,4)P2 lipids were resuspended in CHCl3 and dried under nitrogen. Lipids were then further dried under a speed vacuum for 1 h followed by a resuspension into 2:1:0.01 CHCl3: MeOH: 1 M HCl. The suspension was allowed to sit at room temperature for 15 min before the drying process was repeated. Lipids were then reconstituted in 3:1 CHCl3: MeOH and dried as above. The process was repeated with CHCl3 before a final resuspension into CHCl3 at the desired concentration and storage of protonated stocks at −80 °C. […]
The FRET assay was performed based on a previously published protocol,[48] where intrinsic tryptophan fluorescence within the PX domain was utilized as the donor fluorophore and Dansyl-PE incorporated within liposomes as the acceptor fluorophore. […] Samples were mixed for 40 s after each IP6 addition and were analyzed on an OLIS 14 TB NIR/CD Spectrophotometer [Olis (Bogart, GA)] equipped with a UV/vis photon counter 230–870 nm fluorescence detector. […] Each titration point measurement was integrated over 10 s and measured in triplicate. […]

Assay [4] concerns the target T1, p47phox-PX. In words: Fluorescence polarization competition against BODIPY-PI(3,4)P2 tracer. Format: binding. As to the method:
All fluorescence polarization (FP) experiments were performed using BODIPY-FL diC6–PI(3,4)P2 [Echelon Biosciences (Salt Lake City, UT)] as the reporting tracer. […] Each sample contained 50 nM BODIPY-PI(3,4)P2 and was plated in triplicate on a black half area 96-well microplate [Corning (Corning, NY)]. The plate was centrifuged at 500 rpm for 30 s prior to analysis on a SpectraMax M5 [Molecular Devices (San Jose, CA)]. Measurements were taken using a monochromator with fixed excitation and emission wavelengths of 485 and 525 nm, respectively, and a cutoff of 515 nm. Raw data was converted to millipolarization (mP) using the SoftMax Pro software [Molecular Devices (San Jose, CA)]. mP values were then converted to anisotropy (A) using the following formula: [drawing 3]
A 2-fold dilution series of IP was performed, ranging from 50–0.05 μM IP in the presence of 2.5 μM p47^phox-PX and 50 nM BODIPY-PI(3,4)P2. Samples were plated in triplicate on a black half area microplate, centrifuged at 500 rpm for 30 s, and incubated for 1 h prior to analysis. The data was converted to anisotropy and fit to a four-parameter, variable slope, dose–response equation on GraphPad Prism 10. The IC50 from the dose–response equation was converted to an inhibitory constant (Ki) using a IC50-to-Ki calculator, which incorporated the following formula[47]: [drawing 5] where I50 and L50 are the free concentrations of IP and BODIPY-PI(3,4)P2, respectively, at 50% inhibition, and P0 is the free concentration of p47^phox-PX in the absence of IP.

As for “BODIPY-FL diC6–PI(3,4)P2 [BODIPY-PI(3,4)P2]”, the Kd (usually the equilibrium constant for the complex coming apart) on p47phox-PX [1] is 0.35 ± 0.05 µM.

On to `O=P(O)(O)O[C@H]1[C@H](O)[C@@H](O)[C@H](OP(=O)(O)O)[C@@H](OP(=O)(O)O)[C@H]1O` [IP3, inositol (1,3,4) trisphosphate], for which, in assay [2] (NMR titration), the Kd worked out at 200 ± 50 µM. Consider `O[C@H]1[C@H](O)[C@@H](O)[C@H](O)[C@@H](O)[C@H]1O` [Inositol], for which the “binding observed by NMR (CSPs)” value is on record as “no significant CSPs were observed” in assay [2] and “no significant binding” in assay [2] (listed as inositol).

As to `O=P(O)(O)OC1[C@H](O)[C@H](O)C(O)[C@H](O)[C@H]1O` (stereo partly shown) [inositol-1-phosphate], the Kd in assay [2] (NMR titration) turned out to be 870 ± 120 µM. As to `O=P(O)(O)O[C@H]1[C@H](OP(=O)(O)O)[C@@H](OP(=O)(O)O)[C@H](OP(=O)(O)O)[C@@H](OP(=O)(O)O)[C@H]1OP(=O)(O)O` [IP6, inositol hexaphosphate], in assay [2] (NMR titration, line-broadening precluded Kd fit), the “approximate affinity inferred from intermediate-exchange line-broadening” value is listed as “low-μM or lower affinity”. In assay [3], the IC50 (commonly the point on the concentration scale where inhibition reaches its midpoint) was determined as 1.3 ± 0.3 µM. In addition, at p47phox-PX [4] (2.5 μM p47phox-PX, 50 nM BODIPY-PI(3,4)P2, pH 7.0, 1 mM MgCl2, read-out: Ki (inhibition constant, converted from IC50)), the Ki (in general, the dissociation constant of the complex between target and ligand, obtained from inhibition or displacement) amounted to 0.6 ± 0.2 µM. The “effect of lower pH on inhibition / Ki” value on p47phox-PX [4] (pH 6 with 1 mM MgCl2, compared to pH 7.0) is listed as “no significant change in Ki; also recorded: only a minor effect”. Also, the “effect of absence of MgCl2 on inhibition / Ki” value at p47phox-PX [4] (pH 6 with no MgCl2) is listed as “no significant change in Ki; also recorded: little to no effect”.

For `O=P(O)(O)O[C@@H]1[C@@H](OP(=O)(O)O)[C@H](OP(=O)(O)O)[C@H](O)[C@H](OP(=O)(O)O)[C@H]1OP(=O)(O)O` [IP5, inositol (1,3,4,5,6) pentakisphosphate], in assay [2] (NMR titration), the dissociation constant Kd stood at 58 ± 6 µM. In addition, the “competition with BODIPY-PI(3,4)P2 binding” value on p47phox-PX [4] (up to 50 μM, 2.5 μM p47phox-PX, 50 nM tracer) is “no apparent capacity to inhibit; also recorded: no significant observed competition”.

For `O=P(O)(O)O[C@H]1[C@H](O)[C@@H](OP(=O)(O)O)[C@H](OP(=O)(O)O)[C@@H](OP(=O)(O)O)[C@H]1O` [IP4, inositol (1,3,4,5) tetrakisphosphate], the Kd in assay [2] (NMR titration) was 100 ± 11 µM.
